Measurements as given in patent US20190292524A1, “METHODS FOR CANCER STEM CELL (CSC) EXPANSION” (TRANSGENEX NANOBIOTECH, INC., priority 2016, published 2019).

Test system: MCF-7 cells
Experiment: CD44+ CD24− CSC population in MCF-7 tumoroids by flow cytometry
Format: cell-based, human
Settings: regular growth medium supplemented with 50 μM cobalt chloride, first-generation MCF-7 tumoroids, day 6
Method: We first plated MCF-7 cells in regular growth medium, consisting of RPMI-1640 supplemented with 10% fetal bovine serum (FBS) and 1× penicillin-streptomycin. The cells were plated at ^˜7,000 cells per scaffold in a 96-well cell culture plate. Fresh medium was added on the second day post-seeding and on day 6 post-seeding, the tumoroids were visualized using NucBlue® dye. After confirming the presence of healthy looking tumoroids, they were detached from the scaffold and processed for single cell suspensions using accutase:citrate solution (1:1 ratio). The single cell suspension was then counted for viability and stained with human anti-CD44-APC-cy7 and anti-CD24-APC. DAPI was used to differentiate the live cells within the single cell population and the CD44^+ CD24^− cell population was determined from the live cells using flow cytometry.
We first grew first-generation tumoroids, as described before. The first-generation tumoroids were then processed for single-cell suspensions and plated at ^˜8,000 cells per scaffold in a 96-well cell culture plate. […]
Because hypoxia appears to be required for the maintenance of CSCs, we wanted to test this in our 3D model using cobalt chloride, a known inducer of hypoxia. […] DAPI was used to differentiate the live cells within the single-cell population and the CD44^+ CD24^− cell population was determined using flow cytometry. […]

Structure (SMILES): [Cl][Co][Cl] [cobalt chloride]
- change in percentage of CSCs: did not change the percentage of CSCs
